The source of these data is US12503473B2, “Triazolopyrimidine compounds and their use in treating cancer” (Dizal (Jiangsu) Pharmaceutical Co., Ltd., priority 2018, dated 2025).

Structures are written as SMILES. pIC50: −log10 of the molar value.

Usually pIC50 stands for −log10 of the IC50, conventionally taken in molar units. A high value points to a low IC50.

One assay has as its target T1, MCT1 (Homo sapiens, UniProt P53985).
T1 construct: a human erythroleukemia line predominantly expressing MCT1, a small amount of MCT2 and no MCT4; host or cells: K562
T1 sequence (P53985 1-500): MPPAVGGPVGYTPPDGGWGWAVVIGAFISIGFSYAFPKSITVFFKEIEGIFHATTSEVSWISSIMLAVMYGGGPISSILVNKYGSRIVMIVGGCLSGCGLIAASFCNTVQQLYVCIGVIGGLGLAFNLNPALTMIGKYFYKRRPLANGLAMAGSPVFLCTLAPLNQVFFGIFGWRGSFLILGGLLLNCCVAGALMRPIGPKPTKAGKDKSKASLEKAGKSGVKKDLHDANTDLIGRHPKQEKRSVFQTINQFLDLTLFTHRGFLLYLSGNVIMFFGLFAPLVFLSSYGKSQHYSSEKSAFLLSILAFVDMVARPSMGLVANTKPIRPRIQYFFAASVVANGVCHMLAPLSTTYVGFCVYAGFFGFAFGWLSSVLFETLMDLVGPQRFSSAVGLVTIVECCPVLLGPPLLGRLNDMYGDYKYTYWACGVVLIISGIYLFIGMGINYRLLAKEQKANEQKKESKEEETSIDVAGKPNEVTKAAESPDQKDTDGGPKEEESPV
The assay can be described thus: Assay (c): FLIPR BCECF lactate influx in K562 cells. Type of assay: cell-based. The note with it: mean of at least three repeats, read-out: MCT1 FLIPR pIC50 (K562) (converted).

The target in assay [1] is T2, MCT4 (Homo sapiens, UniProt O15427).
T2 sequence (O15427 1-465): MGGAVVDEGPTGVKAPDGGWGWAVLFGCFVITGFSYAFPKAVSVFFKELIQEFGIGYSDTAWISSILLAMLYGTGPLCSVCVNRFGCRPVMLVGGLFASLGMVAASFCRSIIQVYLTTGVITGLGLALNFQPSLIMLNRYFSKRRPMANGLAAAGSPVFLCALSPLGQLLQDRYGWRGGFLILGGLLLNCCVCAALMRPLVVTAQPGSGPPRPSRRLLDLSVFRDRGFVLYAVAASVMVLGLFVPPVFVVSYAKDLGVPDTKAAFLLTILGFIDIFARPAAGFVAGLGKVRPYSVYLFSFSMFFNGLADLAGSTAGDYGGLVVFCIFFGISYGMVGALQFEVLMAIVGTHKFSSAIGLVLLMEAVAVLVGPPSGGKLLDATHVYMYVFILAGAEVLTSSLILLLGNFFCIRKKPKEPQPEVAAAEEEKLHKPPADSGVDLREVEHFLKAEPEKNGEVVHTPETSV
Nature of the assay: cell-based.
Procedure: (§1) Cells were loaded with the pH sensitive dye BCECFAM(Invitrogen #B11150) before being washed to remove excess dye and seeded into the assay plates—directly onto the test compound—at a density of 15,000 cells/well (NCI—H358) or 30,000 cells/well (K562), in 30 μl HBSS with 1 mM [final] […] Assay plates were lidded and spun in a plate centrifuge at 170 g for 1 minute. Plates were then wrapped in foil and incubated in the dark for 1 hour at room temperature.
(§2) Following incubation with test compound, 10 μl of 25 mM Sodium-L-Lactate (Sigma #L7022) made up in HBSS with 1 mM [final] […] This addition was performed directly on the FLIPR Tetra platform (Molecular Devices) as part of a real-time kinetic read protocol. […] A percentage change from base-line was calculated for each test well and values normalised to control wells—treated with either DMSO (maximum assay signal) or chemistry related to that described in this patent (minimum assay signal)—before fitting concentration response curves to determine an IC50 value.

Assay [2] deals with T2, MCT4. The assay can be described thus: Assay (a): lactate efflux from SK-Br-3 cells (lactate in media, 4 h). Type of assay: cell-based. More on the design: a natively glycolytic human breast adenocarcinoma line predominantly expressing MCT4; host or cells: SK-Br-3. The note with it: mean of at least three repeats (Example 32, marked *, two repeats), read-out: MCT4 lactate efflux pIC50 (SKBR3) (converted). Here is the method:
Assay plates were lidded and incubated for 4 hours at 37° C. and 5% CO2.

Procedure for MCT1: as §1, §2

Turning to `Cc1nc2nc(C)c(C[C@@H]3CCN(c4ccc(-c5ccc(CN6CCOCC6)nn5)nc4)C3)c(C)n2n1` [Example 9, (R)-4-((6-(5-(3-((2,5,7-trimethyl-[1,2,4]triazolo[1,5-a]pyrimidin-6-yl)methyl)pyrrolidin-1-yl)pyridin-2-yl)pyridazin-3-yl)methyl)morpholine], the IC50 on MCT1 is greater than 20000 nM; at MCT4 [2], 0.501 nM. Moreover, the pIC50 on MCT4 [1] is 7.80.
Take `Cc1nc2nc(C)c(C[C@@H]3CCN(c4ccc(-c5ccc(CN6CCOCC6)nn5)cc4)C3)c(C)n2n1` [Example 29, (R)-4-((6-(4-(3-((2,5,7-trimethyl-[1,2,4]triazolo[1,5-a]pyrimidin-6-yl)methyl)pyrrolidin-1-yl)phenyl)pyridazin-3-yl)methyl)morpholine]: the IC50 on MCT1 was greater than 15800 nM.
Take `Cc1nc2nc(C)c(C[C@@H]3CCN(c4cnc(-c5ccc(CN6C[C@@H](C)N(C)C[C@@H]6C)cc5)cn4)C3)c(C)n2n1` [Example 36, 2,5,7-trimethyl-6-(((R)-1-(5-(4-(((2S,5R)-2,4,5-trimethylpiperazin-1-yl)methyl)phenyl)pyrazin-2-yl)pyrrolidin-3-yl)methyl)-[1,2,4]triazolo[1,5-a]pyrimidine]: the IC50 was greater than 25100 nM on MCT1 and 0.501 nM on MCT4 [2].
As for `Cc1nc2nc(C)c(C[C@@H]3CCN(c4cnc(-c5ccc(CN6CCN(CCO)CC6)cc5)cn4)C3)c(C)n2n1` [Example 41, 2-{4-[4-(5-{(3R)-3-[(2,5,7-trimethyl[1,2,4]triazolo[1,5-a]pyrimidin-6-yl)methyl]pyrrolidin-1-yl}pyrazin-2-yl)benzyl]piperazin-1-yl}ethanol], the results for the IC50 on MCT1 and at MCT4 [2] were greater than 25100 nM and 0.794 nM, respectively.
In turn, `Cc1nc2nc(C)c(C[C@@H]3CCN(c4cnc(-c5ccc(CN6CCN(CC(=O)N(C)C)CC6)cc5)cn4)C3)c(C)n2n1` [Example 53, (R)—N,N-dimethyl-2-(4-(4-(5-(3-((2,5,7-trimethyl-[1,2,4]triazolo[1,5-a]pyrimidin-6-yl)methyl)pyrrolidin-1-yl)pyrazin-2-yl)benzyl)piperazin-1-yl)acetamide] gave a pIC50 against MCT4 [1] of 7.60. Further, at MCT4 [2], the IC50 was 0.631 nM.
Compound `Cc1nc2nc(C)c(C[C@@H]3CCN(c4cnc(-c5ccc(CN6CCN(C)CC6)cc5)c(C)n4)C3)c(C)n2n1` [Example 54, (R)-2,5,7-trimethyl-6-((1-(6-methyl-5-(4-((4-methylpiperazin-1-yl)methyl)phenyl)pyrazin-2-yl)pyrrolidin-3-yl)methyl)-[1,2,4]triazolo[1,5-a]pyrimidine] had a pIC50 against MCT4 [1] of 8.10. At MCT4 [2], the IC50 was 0.398 nM.
For `Cc1nc2nc(C)c(C[C@@H]3CCN(c4cnc(-c5ccc(CN6CCN(C(=O)N(C)C)CC6)cc5)cn4)C3)c(C)n2n1` [Example 55, N,N-dimethyl-4-[4-(5-{(3R)-3-[(2,5,7-trimethyl[1,2,4]triazolo[1,5-a]pyrimidin-6-yl)methyl]pyrrolidin-1-yl}pyrazin-2-yl)benzyl]piperazine-1-carboxamide] the same measures were 8.00 and 0.251 nM.
On to `Cc1nc2nc(C)c(C[C@@H]3CCN(c4cnc(-c5ccc(CN6CCN(C)CC6)c(C)c5)cn4)C3)c(C)n2n1` [Example 56, (R)-2,5,7-trimethyl-6-((1-(5-(3-methyl-4-((4-methylpiperazin-1-yl)methyl)phenyl)pyrazin-2-yl)pyrrolidin-3-yl)methyl)-[1,2,4]triazolo[1,5-a]pyrimidine], for which the pIC50 at MCT4 [1] was 7.70. The IC50 at MCT4 [2] was 0.631 nM.
With `Cc1nc2nc(C)c(C[C@@H]3CCN(c4cnc(-c5ccc(CN6CCN(C)CC6)nc5)cn4)C3)c(C)n2n1` [Example 57, (R)-2,5,7-trimethyl-6-((1-(5-(6-((4-methylpiperazin-1-yl)methyl)pyridin-3-yl)pyrazin-2-yl)pyrrolidin-3-yl)methyl)-[1,2,4]triazolo[1,5-a]pyrimidine], the pIC50 against MCT4 [1] was 6.90. For the same compound, the IC50 at MCT4 [2] was 3.98 nM.
For the compound `Cc1nc2nc(C)c(C[C@@H]3CCN(c4cnc(-c5ccc(CN6CCN(C)CC6)cc5)cn4)C3)c(C)n2n1` [Example 59, (R)-2,5,7-trimethyl-6-((1-(5-(4-((4-methylpiperazin-1-yl)methyl)phenyl)pyrazin-2-yl)pyrrolidin-3-yl)methyl)-[1,2,4]triazolo[1,5-a]pyrimidine], the IC50 at MCT1 is greater than 25100 nM.
Consider `Cc1nc2nc(C)c(C[C@@H]3CCN(c4ccc(-c5ccc(CN6CCOCC6)cc5)nn4)C3)c(C)n2n1` [Example 61, (R)-4-(4-(6-(3-((2,5,7-trimethyl-[1,2,4]triazolo[1,5-a]pyrimidin-6-yl)methyl)pyrrolidin-1-yl)pyridazin-3-yl)benzyl)morpholine], for which the negative logarithm of the IC50 (pIC50) against MCT4 [1] was 8.20. Further, the IC50 at MCT4 [2] was 1 nM.
Consider `Cc1nc2nc(C)c(O[C@@H]3CCN(c4ccc(-c5ccc(CN6CCN(C)CC6)nn5)cc4)C3)c(C)n2n1` [Example 65, (R)-2,5,7-trimethyl-6-((1-(4-(6-((4-methylpiperazin-1-yl)methyl)pyridazin-3-yl)phenyl)pyrrolidin-3-yl)oxy)-[1,2,4]triazolo[1,5-a]pyrimidine], for which the IC50 at MCT1 was greater than 25100 nM.
For `CC(=O)N1CCN(Cc2ccc(-c3ccc(N4CC[C@@H](Oc5c(C)nc6nc(C)nn6c5C)C4)cc3)nn2)CC1` [Example 71, (R)-1-(4-((6-(4-(3-((2,5,7-trimethyl-[1,2,4]triazolo[1,5-a]pyrimidin-6-yl)oxy)pyrrolidin-1-yl)phenyl)pyridazin-3-yl)methyl)piperazin-1-yl)ethan-1-one], the IC50 at MCT1 was greater than 25100 nM.
Turning to `Cc1nc2nc(C)c(O[C@@H]3CCN(c4cnc(-c5ccc(CN6CCN(C)CC6)cc5)nc4)C3)c(C)n2n1` [Example 76, (R)-2,5,7-trimethyl-6-((1-(2-(4-((4-methylpiperazin-1-yl)methyl)phenyl)pyrimidin-5-yl)pyrrolidin-3-yl)oxy)-[1,2,4]triazolo[1,5-a]pyrimidine], the values for the IC50 at MCT1 and on MCT4 [2] were greater than 25100 nM and 2 nM, respectively.
Regarding `Cc1nc2nc(C)c(O[C@@H]3CCN(c4cnc(-c5ccc(CN6CCN(C)CC6)cc5)cn4)C3)c(C)n2n1` [Example 77, (R)-2,5,7-trimethyl-6-((1-(5-(4-((4-methylpiperazin-1-yl)methyl)phenyl)pyrazin-2-yl)pyrrolidin-3-yl)oxy)-[1,2,4]triazolo[1,5-a]pyrimidine], the pIC50 at MCT4 [1] was 7.80. In addition, the IC50 on MCT4 [2] was 3.98 nM.
For `Cc1nc2nc(C)c(O[C@@H]3CCN(c4cnc(-c5ccc(CN6CCOCC6)cc5)cn4)C3)c(C)n2n1` [Example 78, (R)-4-(4-(5-(3-((2,5,7-trimethyl-[1,2,4]triazolo[1,5-a]pyrimidin-6-yl)oxy)pyrrolidin-1-yl)pyrazin-2-yl)benzyl)morpholine] the same measures were 8.20 and 2.51 nM.
Taken in the same sequence, the figures for `Cc1nc2nc(C)c(C[C@@H]3CCN(c4cnc(-c5ccc(CN6CCCC6)nc5)cn4)C3)c(C)n2n1` [Example 82, (R)-2,5,7-trimethyl-6-((1-(5-(6-(pyrrolidin-1-ylmethyl)pyridin-3-yl)pyrazin-2-yl)pyrrolidin-3-yl)methyl)-[1,2,4]triazolo[1,5-a]pyrimidine] were 7.90 and 2.51 nM.
